This is an account of results in paper PMC9457556, “Newly Designed Quinazolinone Derivatives as Novel Tyrosinase Inhibitor: Synthesis, Inhibitory Activity, and Mechanism” (Molecules, 2022).

For series [1], the target named is mushroom tyrosinase. Nature of the series: Mushroom tyrosinase enzyme assay with L-DOPA as substrate (475 nm). As to conditions: for IC50: L-DOPA oxidation, pH 6.8, 30 °C, mean of triplicate determinations ± standard deviation; for inhibitory activity against tyrosinase: result in words.
Procedure: Firstly, the effect of the Q1compound against the tyrosinase activity was evaluated.
We measured enzyme assay with L-DOPA as the substrate. We determined enzyme activity at 475 nm in the spectrophotometric experiments. We dissolved the test compounds in DMSO at 1 mM, which was diluted to the required concentration (0, 15, 30, 60, 120, 180, 240, 300 μM). We measured the reaction solution (3 mL), consisting 0.75 mL sodium phosphate buffer (0.1 M, pH 6.8), 1.8 mL H2O, 0.3 mL L-DOPA (2 mM), 0.1 mL test compound, and 0.05 mL enzyme (0.2 mg /L), at 30 °C. We replaced test samples as control. We determined each concentration in three experiments. We used the concentration that inhibited half of the enzyme activity (IC50) to measure the inhibitory effect of inhibitor. We investigated kinetic parameters with increasing concentrations of L-DOPA and test samples by the Lineweaver–Burk double-reciprocal plot and Dixon plot methods. We calculated the % inhibition of tyrosinase as follows: Inhibition (%) = [1 − B/A]/100, where the A and B are the absorbances of the blank control and samples, respectively.
The test system of series [2] is mushroom tyrosinase. Nature of the series: Fluorescence quenching of mushroom tyrosinase. In kind it is binding. As to conditions: Q1 at 36 μM; excitation 290 nm, emission peak 333 nm. The protocol:
The intrinsic interaction mechanisms of Q1 on the tyrosinase were investigated by the fluorescence quenching analysis. The fluorescence emission spectrum was recorded as ranging from 310 to 550 nm at a 290 nm excitation wavelength. […] However, the fluorescence intensity of tyrosinase reduced gradually as the concentration of the citral derivative increased.
(§1) We used fluorescence analysis (Varian Cary Eclipse fluorescence spectrophotometer) to perform fluorescence experiment, and set the excitation wavelength at 290 nm. We mixed inhibitor solution, substrates of tyrosine/L-DOPA or enzyme solution, and sodium phosphate buffer (pH 6.8) at the volumetric ratio of 1:1:8 (v/v/v).

Series [3] in a line: Fluorescence quenching of tyrosine. In kind it is binding. As to conditions: Q1 from 0 to 36 μM; intensity 447.6 to 216.5.
From the text: We also investigated the fluorescence quenching Q1 experiment regarding tyrosine activity, and recorded the fluorescence intensity of tyrosine in the range of […]. […] Thus, the compound was also a good binding agent for tyrosine in a dose-dependent manner.
as §1

In series [4] the test system is mushroom tyrosinase. Nature of the series: Kinetic studies of tyrosinase inhibition (enzyme concentration plots, Lineweaver-Burk plots). The class given is biochemical. As for the experimental part: To ascertain the inhibition type and mechanism of Q1, we studied the relationship between the enzyme concentration and the remaining enzyme activity with various concentrations of Q1 (0, 15, 60, and 120 μM).
Different concentrations of the compound Q1 (0, 15, 60, and 120 μM) were applied to inhibit tyrosinase and obtain the kinetic behavior of tyrosinase catalysis. Lineweaver–Burk reciprocal plots were used to investigate the inhibition modes of Q1 on mushroom tyrosinase. […] Thus, Q1 could bind not only to the free enzymes but also to the enzyme–substrate complexes. […] Additionally, the value of KIS was measured to be 423.63 μM from the concentrations of the compound versus the vertical intercept.
We purchased mushroom tyrosinase (with specific activity 6680 U/mg), and L-3,4-dihydroxyphenyl-alanine (L-DOPA) from Sigma (St. Louis, MO, USA). We measured enzyme assay with L-DOPA as the substrate. We determined enzyme activity at 475 nm in the spectrophotometric experiments. We dissolved the test compounds in DMSO at 1 mM, which was diluted to the required concentration (0, 15, 30, 60, 120, 180, 240, 300 μM). We measured the reaction solution (3 mL), consisting 0.75 mL sodium phosphate buffer (0.1 M, pH 6.8), 1.8 mL H2O, 0.3 mL L-DOPA (2 mM), 0.1 mL test compound, and 0.05 mL enzyme (0.2 mg /L), at 30 °C. We replaced test samples as control. We determined each concentration in three experiments. We used the concentration that inhibited half of the enzyme activity (IC50) to measure the inhibitory effect of inhibitor. We investigated kinetic parameters with increasing concentrations of L-DOPA and test samples by the Lineweaver–Burk double-reciprocal plot and Dixon plot methods. We calculated the % inhibition of tyrosinase as follows: Inhibition (%) = [1 − B/A][…], where the A and B are the absorbances of the blank control and samples, respectively.

Series [5] in a line: Fluorescence quenching of L-DOPA. In kind it is binding. As to conditions: Q1 from 0 to 36 μM; intensity 1619 to 879.9. As for the experimental part:
Finally, the fluorescence emission spectra of L-DOPA were tested in the solutions of Q1 with various concentrations. […] Similarly, the fluorescence emission intensity of Q1 disappeared when it was added to the solution. The results inferred that Q1 was also a good L-DOPA binding agent.
as §1

The target in series [6] is mushroom tyrosinase. Set-up: method as in PMID 20638280. As to conditions: standard inhibitor; cited from earlier work.

Each structure is given as a SMILES string. Like-named read-outs stand apart in the source and are kept apart here.

`CC(C)=CCCC(C)=Cc1nc2ccc(Cl)cc2c(=O)[nH]1` [Compound Q3, 6-chloro-2-(2,6-dimethylhepta-1,5-dien-1-yl)quinazolin-4(3H)-one]: the melting point (usually the temperature, or range, at which the solid turns liquid) fell in the range of 190 to 192 °C. Besides, it took 168 ± 2 µM to reach half-maximal inhibition at mushroom tyrosinase [1] (IC50).
For `CC(C)=CCCC(C)=Cc1nc2cccc(F)c2c(=O)[nH]1` [Compound Q2, 2-(2,6-dimethylhepta-1,5-dien-1-yl)-5-fluoroquinazolin-4(3H)-one], in that order: 189 to 191 °C and 105 ± 1 µM.
In the case of `COc1ccc(-c2nc3ccccc3c(=O)[nH]2)cc1` [Compound Q7, 2-(4-methoxyphenyl)quinazolin-4(3H)-one], the “inhibitory activity against tyrosinase” value with mushroom tyrosinase [1] is reported as “did not exhibit inhibitory activity”.
On to `Cc1ccc(-c2nc3ccccc3c(=O)[nH]2)cc1` [Compound Q6, 2-(p-tolyl)quinazolin-4(3H)-one], for which, in the series with mushroom tyrosinase [1], the “inhibitory activity against tyrosinase” value is on record as “did not exhibit inhibitory activity”.
As to `CC(C)=CCCC(C)=Cc1nc2ccccc2c(=O)[nH]1` [Compound Q1, 2-(2,6-dimethylhepta-1,5-dien-1-yl)quinazolin-4(3H)-one], the “relative fluorescence intensity of tyrosinase” value with mushroom tyrosinase [2] turned out to be 39.45%. In addition, the “decrease of fluorescence intensity of tyrosine” value in series [3] is listed as 51.63%. Moreover, in the series with mushroom tyrosinase [4] (Lineweaver-Burk plots, Q1 at 0, 15, 60, 120 μM), the inhibition type result is recorded as “mixed inhibition type”. Moreover, in the series with mushroom tyrosinase [4] (enzyme activity versus enzyme concentration, Q1 at 0, 15, 60, 120 μM), the reversibility of inhibition result is “reversible”. For the same molecule, the KIS at mushroom tyrosinase [4] (enzyme-substrate complex, from vertical intercept versus compound concentration) stood at 423.63 µM. The Ki (as a rule, a dissociation constant, usually derived from enzyme kinetics or from competition with a known ligand) on mushroom tyrosinase [4] (free enzyme, from plots of slope versus compound concentration, read-out: inhibitor constant (KI)) stood at 117 µM. Further, the “decrease of fluorescence intensity of L-DOPA” value in series [5] amounted to 45.65%. The half-inhibitory concentration (IC50) (as a rule, the concentration that inhibits the measured activity by half) at mushroom tyrosinase [1] stood at 103 ± 2 µM.
In turn, `CC(C)=CCCC(C)=Cc1nc2cc(C)ccc2c(=O)[nH]1` [Compound Q4, 2-(2,6-dimethylhepta-1,5-dien-1-yl)-7-methylquinazolin-4(3H)-one] showed a melting point of 188 to 192 °C. In addition, inhibition against mushroom tyrosinase [1] was half-maximal at 253 ± 2 µM (IC50).
On to `OC[C@H]1O[C@@H](Oc2ccc(O)cc2)[C@H](O)[C@@H](O)[C@@H]1O` [arbutin], for which the IC50 on mushroom tyrosinase [6] is 180 µM.
